Data taken from article PMC4512978, “Synthesis and evaluation in rats of homologous series of [^18F]-labeled dopamine D2/3 receptor agonists based on the 2-aminomethylchroman scaffold as potential PET tracers” (EJNMMI Research, 2015).

Tested on: D2/3R
Test: Kinetic analysis of PET data (1TCM, 2TCM, Logan, SRTM);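 as to 2TCM BPND change relative to control: Raclopride 1 mg/kg intravenous pretreatment versus saline controls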;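 as to SRTM BPND change relative to control: Raclopride 1 mg/kg intravenous pretreatment versus saline controls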
Type: in vivo, Sprague-Dawley rats
Parameters: key to SRTM BPND / 1TCM BPND / 2TCM BPND (VT-based): BPND = VT(target)/VT(cerebellum) − 1 (or SRTM, cerebellum reference); SRTM BPND change relative to control / 1TCM BPND change relative to control / 2TCM BPND change relative to control / Logan BPND change relative to control: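 Raclopride 1 mg/kg intravenous pretreatment versus saline controls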; 1TCM VT / 2TCM VT: unit not given here
Procedure: Kinetic analysis is described using the nomenclature proposed by Innis et al.. ROI TACs of [^18F]FEt-AMC13 were analyzed with one-tissue and two-tissue compartmental models of reversible binding (1TCM and 2TCM, respectively) to obtain individual rate constants. From these, the regional distribution volumes (VT) were calculated and compared to those obtained with Logan graphical analysis. Binding potentials (BPND) were calculated from the distribution ratios as VT (target) / VT (cerebellum) – 1, or estimated with the simplified reference tissue model (SRTM) using the cerebellum as reference region.
Metabolite-corrected plasma-derived arterial input function and whole blood time-activity curve were used for Logan, 1TCM, and 2TCM analyses. Fractional cerebral blood volume was set to 3.6 % [27]. For one rat in the raclopride-treated group, no input curves could be obtained; therefore, its PET data were only analyzed with SRTM.
Degree of D2/3R-specific binding of the tracers was characterized by BPND (as given above) or the specific binding ratio (SBR) given as target region activity/cerebellar activity - 1. Both were calculated under control conditions and in response to the raclopride challenge.

[1] = Cortex, raclopride, listed as [18F]FEt-AMC13
[2] = Hippocampus, raclopride, listed as [18F]FEt-AMC13
[3] = Hypothalamus, control rat A, SD could not be estimated

For Oc1ccc2c(c1)O[C@@H](CNCc1ccc(OCC[18F])cc1)CC2 [[^18F]FEt-AMC13], the “2TCM k2” value (Cortex, control rat C) was 0.19 ± 1.58 min⁻¹, the “2TCM k3” value (Cortex, control rat C) was 1.50 ± 19.49 min⁻¹ and the “2TCM k4” value (Cortex, control rat C) was 1.00 ± 1.64 min⁻¹. The “1TCM K1” value (Cortex, control rat D) was 0.47 ± 0.02 mL/g/min, the “1TCM k2” value (Cortex, control rat D) was 0.09 ± 0.01 min⁻¹ and the “2TCM K1” value (Cortex, control rat D) was 1.46 ± 0.45 mL/g/min. The “2TCM k2” value (Cortex, control rat D) was 6.65 ± 0.77 min⁻¹, the “2TCM k3” value (Cortex, control rat D) was 2.62 ± 1.18 min⁻¹ and the “2TCM k4” value (Cortex, control rat D) was 0.11 ± 6.33 min⁻¹. For the same compound, the “1TCM BPND” value (Cortex, raclopride) was 0.17±0.05, the “1TCM BPND change relative to control” value (Cortex, raclopride) was -9% and the “1TCM VT” value (Cortex, raclopride) was 5.17±0.60. The “2TCM BPND (VT-based)” value (Cortex, raclopride) was 0.10 ± 0.02, the “2TCM BPND change relative to control” value (Cortex, raclopride) was −27% and the “2TCM VT” value (Cortex, raclopride) was 5.45±0.52. For the same compound, the “Logan BPND” value (Cortex, raclopride) was 0.09±0.03, the “Logan BPND change relative to control” value (Cortex, raclopride) was -32% and the “Logan VT” value (Cortex, raclopride) was 5.42±0.44. For the same compound, the “SRTM BPND” value (Cortex, raclopride) was 0.08 ± 0.02, the “SRTM BPND change relative to control” value (Cortex, raclopride) was −24% and the “2TCM BPND (VT-based)” value [1] was 0.10±0.02. For the same compound, the “2TCM BPND change relative to control” value [1] was -27%, the “SRTM BPND” value [1] was 0.08±0.02 and the “SRTM BPND change relative to control” value [1] was “–24%”. The “1TCM BPND” value (Hippocampus, control) was 0.35±0.11, the “1TCM VT” value (Hippocampus, control) was 6.34±0.71 and the “2TCM BPND (VT-based)” value (Hippocampus, control) was 0.30 ± 0.07. For the same compound, the “2TCM VT” value (Hippocampus, control) was 6.62±0.86, the “Logan BPND” value (Hippocampus, control) was 0.28±0.04 and the “Logan VT” value (Hippocampus, control) was 6.49±0.88. The “SRTM BPND” value (Hippocampus, control) was 0.26 ± 0.04, the “1TCM K1” value (Hippocampus, control rat A) was 0.41 ± 0.02 mL/g/min and the “1TCM k2” value (Hippocampus, control rat A) was 0.06 ± 0.01 min⁻¹. For the same compound, the “2TCM K1” value (Hippocampus, control rat A) was 2.21 ± 1.25 mL/g/min, the “2TCM k2” value (Hippocampus, control rat A) was 8.56 ± 3.62 min⁻¹ and the “2TCM k3” value (Hippocampus, control rat A) was 1.60 ± 2.24 min⁻¹. For the same compound, the “2TCM k4” value (Hippocampus, control rat A) was 0.05 ± 8.88 min⁻¹, the “1TCM K1” value (Hippocampus, control rat B) was 0.51 ± 0.02 mL/g/min and the “1TCM k2” value (Hippocampus, control rat B) was 0.08 ± 0.01 min⁻¹. The “2TCM K1” value (Hippocampus, control rat B) was 0.71 ± 0.07 mL/g/min, the “2TCM k2” value (Hippocampus, control rat B) was 0.50 ± 0.23 min⁻¹ and the “2TCM k3” value (Hippocampus, control rat B) was 0.50 ± 0.27 min⁻¹. For the same compound, the “2TCM k4” value (Hippocampus, control rat B) was 0.14 ± 0.03 min⁻¹, the “1TCM K1” value (Hippocampus, control rat C) was 0.46 ± 0.01 mL/g/min and the “1TCM k2” value (Hippocampus, control rat C) was 0.08 ± 0.004 min⁻¹. The “2TCM K1” value (Hippocampus, control rat C) was 0.60 ± 0.12 mL/g/min, the “2TCM k2” value (Hippocampus, control rat C) was 0.57 ± 0.77 min⁻¹ and the “2TCM k3” value (Hippocampus, control rat C) was 1.17 ± 1.34 min⁻¹. For the same compound, the “2TCM k4” value (Hippocampus, control rat C) was 0.24 ± 0.09 min⁻¹, the “1TCM K1” value (Hippocampus, control rat D) was 0.48 ± 0.02 mL/g/min and the “1TCM k2” value (Hippocampus, control rat D) was 0.08 ± 0.01 min⁻¹. For the same compound, the “2TCM K1” value (Hippocampus, control rat D) was 101 ± 14615 mL/g/min, the “2TCM k2” value (Hippocampus, control rat D) was 1246 ± 181990 min⁻¹ and the “2TCM k3” value (Hippocampus, control rat D) was 5.49 ± 4.23 min⁻¹. For the same compound, the “2TCM k4” value (Hippocampus, control rat D) was 0.07 ± 0.05 min⁻¹, the “1TCM BPND” value (Hippocampus, raclopride) was 0.33±0.09 and the “1TCM BPND change relative to control” value (Hippocampus, raclopride) was -8%. For the same compound, the “1TCM VT” value (Hippocampus, raclopride) was 5.88±0.56, the “2TCM BPND (VT-based)” value (Hippocampus, raclopride) was 0.26 ± 0.06 and the “2TCM BPND change relative to control” value (Hippocampus, raclopride) was −13%. For the same compound, the “2TCM VT” value (Hippocampus, raclopride) was 6.27±0.63, the “Logan BPND” value (Hippocampus, raclopride) was 0.25±0.05 and the “Logan BPND change relative to control” value (Hippocampus, raclopride) was -10%. The “Logan VT” value (Hippocampus, raclopride) was 6.25±0.56, the “SRTM BPND” value (Hippocampus, raclopride) was 0.23 ± 0.05 and the “SRTM BPND change relative to control” value (Hippocampus, raclopride) was −13%. For the same compound, the “2TCM BPND (VT-based)” value [2] was 0.26±0.06, the “2TCM BPND change relative to control” value [2] was -13% and the “SRTM BPND” value [2] was 0.23±0.05. The “SRTM BPND change relative to control” value [2] was “–13%”, the “1TCM BPND” value (Hypothalamus, control) was 0.25±0.04 and the “1TCM VT” value (Hypothalamus, control) was 5.86±0.60. For the same compound, the “2TCM BPND (VT-based)” value (Hypothalamus, control) was 0.22 ± 0.03, the “2TCM VT” value (Hypothalamus, control) was 6.20±0.55 and the “Logan BPND” value (Hypothalamus, control) was 0.21±0.04. The “Logan VT” value (Hypothalamus, control) was 6.10±0.44, the “SRTM BPND” value (Hypothalamus, control) was 0.21 ± 0.03 and the “1TCM K1” value (Hypothalamus, control rat A) was 0.40 ± 0.03 mL/g/min. The “1TCM k2” value (Hypothalamus, control rat A) was 0.06 ± 0.01 min⁻¹, the “2TCM K1” value [3] was 273 mL/g/min and the “2TCM k2” value [3] was 1355 min⁻¹. The “2TCM k3” value [3] was 1.65 min⁻¹, the “2TCM k4” value [3] was 0.05 min⁻¹ and the “1TCM K1” value (Hypothalamus, control rat B) was 0.53 ± 0.03 mL/g/min. The “1TCM k2” value (Hypothalamus, control rat B) was 0.09 ± 0.01 min⁻¹, the “2TCM K1” value (Hypothalamus, control rat B) was 1.17 ± 0.88 mL/g/min and the “2TCM k2” value (Hypothalamus, control rat B) was 3.45 ± 1.30 min⁻¹. For the same compound, the “2TCM k3” value (Hypothalamus, control rat B) was 2.22 ± 6.73 min⁻¹, the “2TCM k4” value (Hypothalamus, control rat B) was 0.13 ± 14.19 min⁻¹ and the “1TCM K1” value (Hypothalamus, control rat C) was 0.50 ± 0.02 mL/g/min. For the same compound, the “1TCM k2” value (Hypothalamus, control rat C) was 0.08 ± 0.01 min⁻¹, the “2TCM K1” value (Hypothalamus, control rat C) was 0.64 ± 0.24 mL/g/min and the “2TCM k2” value (Hypothalamus, control rat C) was 0.63 ± 1.60 min⁻¹. For the same compound, the “2TCM k3” value (Hypothalamus, control rat C) was 1.37 ± 2.85 min⁻¹, the “2TCM k4” value (Hypothalamus, control rat C) was 0.27 ± 0.20 min⁻¹ and the “1TCM K1” value (Hypothalamus, control rat D) was 0.59 ± 0.04 mL/g/min. The “1TCM k2” value (Hypothalamus, control rat D) was 0.12 ± 0.02 min⁻¹, the “2TCM K1” value (Hypothalamus, control rat D) was 680 ± 116990 mL/g/min and the “2TCM k2” value (Hypothalamus, control rat D) was 3105 ± 534810 min⁻¹. The “2TCM k3” value (Hypothalamus, control rat D) was 2.16 ± 0.48 min⁻¹.
